Details: 343.14 K, Liquid, Vibrating tube method

CCCCCCC(=O)OCC(COC(=O)CCCCCC)(COC(=O)CCCCCC)COC(=O)CCCCCC [pentaerythritol tetraheptanoate]
Details	mass density [kg/m3]
18157 kPa	953.7
18178 kPa	953.7
18297 kPa	953.7
18319 kPa	953.8
18346 kPa	953.8
18368 kPa	953.7
18394 kPa	953.9
18417 kPa	953.8
18440 kPa	953.8
18467 kPa	954
18490 kPa	953.8
18513 kPa	953.9
18736 kPa	954
18759 kPa	954.1
18788 kPa	954.2
18811 kPa	954.1
18834 kPa	954.2
18863 kPa	954.2
18886 kPa	954.2
18911 kPa	954.2
18939 kPa	954.2
18963 kPa	954.3
18988 kPa	954.2
19016 kPa	954.2
19305 kPa	954.6
19330 kPa	954.5
19356 kPa	954.5
19386 kPa	954.6
19411 kPa	954.6
19743 kPa	954.6
19769 kPa	954.7
19796 kPa	954.8
19828 kPa	954.7
19854 kPa	954.8
19881 kPa	954.8
19913 kPa	954.8
19941 kPa	954.8
19968 kPa	954.8
19994 kPa	954.9
20028 kPa	954.9
20054 kPa	955
20087 kPa	954.9
20115 kPa	955
20142 kPa	955
20169 kPa	955.2
20203 kPa	955.1
20230 kPa	955.1
20258 kPa	955.1
20441 kPa	955.3
20475 kPa	955.2
20533 kPa	955.4
20567 kPa	955.3
20596 kPa	955.3
20625 kPa	955.3
20660 kPa	955.3
20722 kPa	955.3
20752 kPa	955.5
20817 kPa	955.5
20847 kPa	955.4
20877 kPa	955.4
20907 kPa	955.5
20942 kPa	955.6
20972 kPa	955.5
21003 kPa	955.6
21039 kPa	955.6
21133 kPa	955.6
21170 kPa	955.7
21200 kPa	955.8
21230 kPa	955.8
21267 kPa	955.7
21298 kPa	955.9
21330 kPa	955.8
21368 kPa	955.8
21399 kPa	955.8
21431 kPa	955.9
21462 kPa	955.8
21500 kPa	956
21533 kPa	955.8
21565 kPa	956
21597 kPa	956
21636 kPa	955.9
21669 kPa	956
21702 kPa	956
21740 kPa	956
21773 kPa	956
21806 kPa	956.1
21839 kPa	956.1
21878 kPa	956.2
21912 kPa	956.2
21946 kPa	956.2
21986 kPa	956.1
22020 kPa	956.3
22053 kPa	956.2
22086 kPa	956.1
22236 kPa	956.4
22270 kPa	956.5
22311 kPa	956.5
22345 kPa	956.4
22380 kPa	956.5
22421 kPa	956.5
22456 kPa	956.5
22491 kPa	956.6
22526 kPa	956.5
22569 kPa	956.6
22604 kPa	956.6
22640 kPa	956.7
22675 kPa	956.7
22776 kPa	956.7
22834 kPa	956.7
22870 kPa	956.8
22914 kPa	956.8
22950 kPa	956.8

— the NIST ThermoML archive (doi:10.1021/je060271a)
